Data: US7935706B2, “Nitrogen-containing heterocycle derivatives substituted with cyclic group” (Shionogi & Co., Ltd., priority 2006, dated 2011)
Like-named read-outs stand apart in the source and are kept apart here.

How the values were obtained:
[1] = biological target: T1, NMDA receptor (NR1 subunit and NR2B subunit) (Mus musculus, UniProt P35438+Q01097); experiment: Measurement of expression of NMDA receptor and Ca ion influx amount (glutamic acid/glycine-induced, HEK293 cell co-expressing NR1 and NR2B subunits, Fluo-3/AM); assay type: cell-based
T1 construct: expressed in transfected cells; host or cells: HEK293 cells, transient transfection with pcDNA3.1 plasmids
Procedure: Measurement of Expression of NMDA Receptor and Ca Ion Influx Amount
A complementary DNA (cDNA) of a mouse NMDA receptor subunit was transiently introduced into a HEK293 cell and, after 1 day from introduction, change in a glutamic acid/glycine-induced intracelluar Ca amount was measured using a Ca ion reactive fluorescent coloring matter.
The HEK293 cell was cultured, and passaged using a modified Dulbecco's Eagle medium (DMEM, low glucose).
The HEK293 cell (20,000/well) was seeded on a 96-well plate, a NR1 subunit and a NR2B subunit of the NMDA receptor incorporated into the pcDNA3.1 plasmid were transiently introduced into a cell, and the subunits were co-expressed. An introduction amount of a DNA was 0.025 μg in the case of the NR1 subunit, and 0.075 μg in the case of NR2B subunit per well. For the cell after introduction, cell death was inhibited using 50 μM of the NMDA receptor antagonist MK-801.
For adjusting a test compound and washing a cell, Krebs/Ringer/Hepes buffer (KRH, Ca: 5 mM) was used.
After 1 day from introduction, the NMDA receptor antagonist MK-801 was washed out using the KRH buffer, and a Ca ion indication fluorescent coloring matter Fluo-3/AM was made to be taken into the cell. Ca ion influx was induced with 20 μM glutamic acid/2 μM glycine. Change in a fluorescent amount due to Ca ion influx into the cell was measured at excitation of 480 nm using a fluorescent imaging system FDSS 3000.
From a measured value of the test compound, a Ca ion influx inhibition rate (%) was obtained by the following equation, and a dose at which influx is inhibited 50% (IC50) was calculated.
Ca ion influx inhibition rate(%)=100−[(fluorescent amount in the presence of test compound−background fluorescent amount)/(total fluorescent amount−background fluorescent)]×100

[2] = biological target: T2, NR1/NR2B receptor (Rattus norvegicus, UniProt P35439+Q00960); experiment: Test of binding with NMDA receptor (NR1/NR2B receptor): competition with [3H]-Ifenprodil on rat cerebral cortex membrane specimen
T2 construct: from tissue; host or cells: rat cerebral cortex membranes (male Slc: Wistar rat)
Procedure: Test of Binding with NMDR Receptor (NR1/NR2B Receptor)
Using Ifenprodil which is an antagonist specific for a NR1/NR2B subtype receptor as a ligand, an experiment of competition between a receptor and a test compound was performed.
Using a male Slc: Wistar rat as an animal, a brain was isolated after decapitation, and a cerebral cortex was fractionated. The cerebral cortex was homogenized with a 20-fold amount of an ice-cooled 50 mM Tris/HCl buffer (pH 7.4), and the homogenate was centrifuged at 4° C. and 27,500×g for 10 minutes. The resulting precipitate was suspended in the same buffer, and this was again centrifuged. This operation was repeated for three times, the resulting precipitate was suspended in a buffer, and this was stored at −80° C. Immediately before an experiment, the frozen suspension was thawed at room temperature, this was centrifuged at 4° C. and 27,500×g for 10 minutes, and the resulting precipitate was suspended in a buffer. Further, the suspension was diluted 10-fold with a buffer, and this was used as a membrane specimen in an experiment. In a binding experiment, to 470 μl of the membrane specimen were added […] of each of test compounds having different concentrations, 10 μl of a labeled ligand [^3H]-Ifenprodil and 10 μl GBR-12909, followed by incubation at an ice temperature for 120 minutes. A concentration of [^3H]-Ifenprodil of the labeled ligand was finally 5 nM, and a concentration of GBR-12909 was finally 3 μM. For measuring a total binding amount, DMSO as a solvent was used and, for measuring a non-specific binding amount, 100 μM Ifenprodil was used. GBR-12909 was added in order to block binding of [^3H]-Ifenprodil to non-polyamine-sensitive site. After incubation, a bound formand a free foramwere separated using Whatman GF/C filter (manufactured by Whatman), and the filter was washed with 2.5 ml ice-cooled buffer four times. The filter was immersed in liquid scintillation (Cryasol I, manufactured by Nacalai tesque), and radioactivity (dpm) was measured with a liquid scintillation counter. From a measured value, a binding inhibition rate (%) was obtained by the following equation, and a dose at which binding is inhibited 50% (IC50) was calculated. A formula of GBR-12909 (vanoxerine) is shown below.
Binding inhibition rate(%)=100−[(binding amount in the presence of test compound−non-specific binding amount)/(total binding amount−non-specific binding amount)]×100

[3] = Ca ion influx induced with 20 μM glutamic acid/2 μM glycine, HEK293 cell with mouse NR1/NR2B, read-out: Ca2+ IC50
[4] = [3H]-Ifenprodil 5 nM, GBR-12909 3 μM, rat cerebral cortex membranes, ice temperature 120 minutes, read-out: NR2B (IC50 μM)
[5] = same binding test, read-out: IC50 (binding with NR1/NR2B receptor)
[6] = same Ca ion influx test, read-out: IC50 (Ca ion influx inhibition)

T1 sequence (Q01097 27-1482, other chains not shown): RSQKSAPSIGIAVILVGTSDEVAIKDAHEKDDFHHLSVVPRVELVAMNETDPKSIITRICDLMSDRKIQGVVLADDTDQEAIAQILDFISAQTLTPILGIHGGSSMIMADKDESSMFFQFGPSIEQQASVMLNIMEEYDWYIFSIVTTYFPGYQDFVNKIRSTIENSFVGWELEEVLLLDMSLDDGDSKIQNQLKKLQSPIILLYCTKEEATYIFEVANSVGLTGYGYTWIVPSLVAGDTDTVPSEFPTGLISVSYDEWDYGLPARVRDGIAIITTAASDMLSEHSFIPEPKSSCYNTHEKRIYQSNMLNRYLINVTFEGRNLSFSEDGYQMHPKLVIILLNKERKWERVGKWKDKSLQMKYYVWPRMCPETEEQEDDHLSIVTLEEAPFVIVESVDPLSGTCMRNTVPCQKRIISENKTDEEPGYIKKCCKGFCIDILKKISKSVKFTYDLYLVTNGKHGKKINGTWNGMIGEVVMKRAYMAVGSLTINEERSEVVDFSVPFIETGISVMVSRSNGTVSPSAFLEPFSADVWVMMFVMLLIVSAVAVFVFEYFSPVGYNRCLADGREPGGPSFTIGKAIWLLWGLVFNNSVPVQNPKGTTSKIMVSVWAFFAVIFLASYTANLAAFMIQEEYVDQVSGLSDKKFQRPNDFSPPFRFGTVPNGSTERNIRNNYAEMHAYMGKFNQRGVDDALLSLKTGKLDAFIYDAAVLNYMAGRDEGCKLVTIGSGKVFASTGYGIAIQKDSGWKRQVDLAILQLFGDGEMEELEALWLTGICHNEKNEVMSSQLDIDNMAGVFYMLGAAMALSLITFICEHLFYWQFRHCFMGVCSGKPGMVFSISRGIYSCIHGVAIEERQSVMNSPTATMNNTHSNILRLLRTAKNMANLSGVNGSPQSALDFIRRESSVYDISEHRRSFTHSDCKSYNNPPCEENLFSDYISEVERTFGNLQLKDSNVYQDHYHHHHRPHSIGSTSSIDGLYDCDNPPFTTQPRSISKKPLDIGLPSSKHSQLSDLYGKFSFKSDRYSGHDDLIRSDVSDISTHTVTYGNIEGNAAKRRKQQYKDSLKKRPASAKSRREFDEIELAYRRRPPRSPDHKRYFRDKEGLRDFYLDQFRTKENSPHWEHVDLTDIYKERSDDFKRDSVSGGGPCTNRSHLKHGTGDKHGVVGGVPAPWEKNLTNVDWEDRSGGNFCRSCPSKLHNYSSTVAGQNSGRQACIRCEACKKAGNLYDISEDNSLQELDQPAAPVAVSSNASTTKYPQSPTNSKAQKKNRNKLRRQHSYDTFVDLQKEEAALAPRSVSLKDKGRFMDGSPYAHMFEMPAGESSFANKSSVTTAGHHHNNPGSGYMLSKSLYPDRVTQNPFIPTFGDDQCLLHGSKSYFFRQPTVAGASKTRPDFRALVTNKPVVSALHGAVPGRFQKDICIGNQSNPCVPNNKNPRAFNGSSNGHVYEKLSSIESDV
T2 sequence (Q00960 27-1482, other chains not shown): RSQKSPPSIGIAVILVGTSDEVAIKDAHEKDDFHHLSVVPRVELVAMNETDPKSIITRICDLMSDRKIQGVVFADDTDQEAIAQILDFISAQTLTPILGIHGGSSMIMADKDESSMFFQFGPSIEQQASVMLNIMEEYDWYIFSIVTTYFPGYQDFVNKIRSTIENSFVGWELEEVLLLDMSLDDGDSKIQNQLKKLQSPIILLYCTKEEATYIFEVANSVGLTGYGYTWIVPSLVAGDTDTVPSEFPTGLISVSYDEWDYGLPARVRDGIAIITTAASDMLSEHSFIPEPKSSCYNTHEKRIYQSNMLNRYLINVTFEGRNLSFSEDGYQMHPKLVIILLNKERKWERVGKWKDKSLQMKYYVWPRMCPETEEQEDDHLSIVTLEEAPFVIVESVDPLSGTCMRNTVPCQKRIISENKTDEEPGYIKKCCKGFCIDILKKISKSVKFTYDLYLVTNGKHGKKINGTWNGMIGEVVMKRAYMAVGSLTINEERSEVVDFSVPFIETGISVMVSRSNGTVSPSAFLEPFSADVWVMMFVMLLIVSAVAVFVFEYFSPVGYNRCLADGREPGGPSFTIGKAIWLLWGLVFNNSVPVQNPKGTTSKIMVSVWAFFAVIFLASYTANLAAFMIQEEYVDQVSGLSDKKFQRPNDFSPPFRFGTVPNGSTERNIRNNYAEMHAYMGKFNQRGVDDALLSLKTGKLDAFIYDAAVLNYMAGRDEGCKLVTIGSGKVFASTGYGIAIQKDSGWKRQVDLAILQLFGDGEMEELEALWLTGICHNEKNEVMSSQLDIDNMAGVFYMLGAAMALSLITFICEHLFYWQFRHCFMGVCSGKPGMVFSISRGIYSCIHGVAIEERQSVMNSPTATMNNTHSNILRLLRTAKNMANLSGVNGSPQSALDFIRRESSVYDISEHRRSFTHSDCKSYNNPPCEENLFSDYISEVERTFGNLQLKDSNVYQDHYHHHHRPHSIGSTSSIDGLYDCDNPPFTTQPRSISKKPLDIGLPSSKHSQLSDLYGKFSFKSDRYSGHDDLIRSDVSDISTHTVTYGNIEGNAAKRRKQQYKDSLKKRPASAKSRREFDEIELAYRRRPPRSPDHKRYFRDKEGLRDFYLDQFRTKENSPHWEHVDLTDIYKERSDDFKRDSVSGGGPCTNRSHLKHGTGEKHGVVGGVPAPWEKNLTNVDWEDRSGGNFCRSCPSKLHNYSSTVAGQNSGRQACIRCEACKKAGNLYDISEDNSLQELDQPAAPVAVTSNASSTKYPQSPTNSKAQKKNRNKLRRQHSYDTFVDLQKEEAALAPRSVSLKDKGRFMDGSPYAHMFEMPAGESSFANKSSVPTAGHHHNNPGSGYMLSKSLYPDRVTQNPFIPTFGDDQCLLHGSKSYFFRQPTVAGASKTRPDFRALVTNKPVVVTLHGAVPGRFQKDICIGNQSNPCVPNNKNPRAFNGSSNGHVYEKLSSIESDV

Compound	IC50 [1, 3]	IC50 [2, 4]	other results
O=C(CC1CCN(c2ccc(C(F)(F)F)cc2)CC1)Nc1ccc2[nH]c(=O)oc2c1 [Compound I-8]	0.048 µM		
O=C(NCC1CCN(c2ccc(C(F)(F)F)cc2)CC1)c1ccc2[nH]c(=O)oc2c1 [Compound I-11]	0.069 µM		
O=C(C=C1CCN(c2ccc(C(F)(F)F)cc2)CC1)Nc1ccc2[nH]c(=O)oc2c1 [Compound I-16]	0.037 µM		
O=C(CCC1CCN(c2ccc(C(F)(F)F)cc2)CC1)Nc1ccc(=O)[nH]c1 [Compound I-21]	0.037 µM	0.096 µM	
O=C(Nc1ccc2[nH]c(=O)oc2c1)NC1CCN(c2ccc(C(F)(F)F)cc2)CC1 [Compound I-23]	0.025 µM	0.04 µM	
O=C(Nc1ccc2[nH]c(=O)oc2c1)C(O)C1CCN(c2ccc(C(F)(F)F)cc2)CC1 (stereo not drawn) [Compound I-25]	0.063 µM		
O=C(Nc1ccc2[nH]c(=O)oc2c1)C(=O)C1CCN(c2ccc(C(F)(F)F)cc2)CC1 [Compound I-26]	0.048 µM		
O=C(CC1(O)CCN(c2ccc(C(F)(F)F)cc2)CC1)Nc1ccc2[nH]c(=O)oc2c1 [Compound I-30]	0.004 µM	0.077 µM	
O=C(C=C1CCN(c2ccc(F)cc2)CC1)Nc1ccc2[nH]c(=O)oc2c1 [Compound I-33]	0.037 µM		
O=C(CC1(O)CCN(c2ccc(Cl)cc2)CC1)Nc1ccc2[nH]c(=O)oc2c1 [Compound I-34]	0.02 µM		
CC(C)c1ccc(N2CCC(O)(CC(=O)Nc3ccc4[nH]c(=O)oc4c3)CC2)cc1 [Compound I-40]	0.015 µM		
O=C(C=C1CCN(c2cc(C(F)(F)F)ccn2)CC1)Nc1ccc2[nH]c(=O)oc2c1 [Compound I-41]	0.092 µM		
O=C(Nc1ccc2[nH]c(=O)oc2c1)C(F)=C1CCN(c2ccc(C(F)(F)F)cc2)CC1 [Compound I-42]	0.013 µM	0.107 µM	
O=C(C=C1CCN(c2ccc(C(F)(F)F)cn2)CC1)Nc1ccc2[nH]c(=O)oc2c1 [Compound I-43]	0.009 µM	0.017 µM	
O=C(C=C1CCN(c2ccc(Cl)cn2)CC1)Nc1ccc2[nH]c(=O)oc2c1 [Compound I-45]	0.023 µM		IC50 [2, 5]: ≤ 0.1 µM
O=C(CC1=CCN(c2ccc(C(F)(F)F)cc2)CC1)Nc1ccc2[nH]c(=O)oc2c1 [Compound I-53]	0.067 µM		
O=C(Nc1ccc2[nH]c(=O)oc2c1)C(=O)N1CCN(c2ccc(C(F)(F)F)cc2)CC1 [Compound I-55]	0.007 µM	0.025 µM	
O=C(CC1(O)CCN(c2ccc(C(F)(F)F)cc2)CC1)Nc1ccc2[nH]c(=O)sc2c1 [Compound I-70]	0.015 µM	0.068 µM	
O=C(Nc1ccc2[nH]c(=O)oc2c1)C(=O)N1CCN(c2ccc(Cl)cc2)CC1 [Compound I-73]	0.008 µM	0.015 µM	
O=C(Nc1cnc2[nH]c(=O)oc2c1)C(=O)N1CCN(c2ccc(C(F)(F)F)cc2)CC1 [Compound I-74]	0.039 µM		
O=C(Nc1cnc2[nH]c(=O)oc2c1)C(=O)N1CCN(c2ccc(Cl)cc2)CC1 [Compound I-76]			IC50 [1, 6]: ≤ 0.1 µM
O=C(NCC1=CCN(c2ccc(C(F)(F)F)cc2)CC1)c1ccc2[nH]c(=O)sc2c1 [Compound I-78]	0.031 µM		
O=C(Nc1ccc2[nH]c(=O)[nH]c2c1)C(=O)N1CCN(c2ccc(C(F)(F)F)cc2)CC1 [Compound I-79]	0.002 µM	0.013 µM	
O=C(CC1(O)CCN(c2ccc(F)c(C(F)(F)F)c2)CC1)Nc1ccc2[nH]c(=O)sc2c1 [Compound I-80]	0.052 µM		
O=C(CC1(O)CCN(c2ccc(F)c(C(F)(F)F)c2)CC1)Nc1ccc2[nH]c(=O)oc2c1 [Compound I-81]	0.062 µM		

Compound	IC50 [1, 3]	IC50 [2, 4]	other results
O=C(Nc1ccc2[nH]c(=O)[nH]c2c1)C(=O)N1CCN(c2ccc(Cl)cc2)CC1 [Compound I-84]	0.011 µM		IC50 [2, 5]: ≤ 0.1 µM
O=C(Nc1ccc2[nH]c(=O)[nH]c2c1)C(=O)N1CCN(c2ccc(F)cc2)CC1 [Compound I-85]		0.067 µM	
O=C(Nc1ccc2[nH]c(=O)oc2c1)C(=O)N1CCN(c2cccc(Cl)c2)CC1 [Compound I-86]			IC50 [1, 6]: ≤ 0.1 µM; IC50 [2, 5]: ≤ 0.1 µM
O=C(Nc1ccc2[nH]c(=O)oc2c1)C(=O)N1CCN(c2ccc(Br)cc2)CC1 [Compound I-87]		0.012 µM	IC50 [1, 6]: ≤ 0.1 µM
O=C(Nc1ccc2[nH]c(=O)sc2c1)C(=O)N1CCN(c2ccc(F)cc2)CC1 [Compound I-89]	0.087 µM		
O=C(Nc1cnc2[nH]c(=O)oc2c1)C(=O)N1CCN(c2ccc(Br)cc2)CC1 [Compound I-94]	0.051 µM		
O=C(Nc1ccc2[nH]c(=O)oc2c1)C(=O)N1CCN(c2ccc(F)c(Cl)c2)CC1 [Compound I-110]	0.009 µM		
O=C(Nc1cnc2[nH]c(=O)oc2c1)C(=O)N1CCN(c2ccc(F)c(Cl)c2)CC1 [Compound I-111]			IC50 [1, 6]: ≤ 0.1 µM
O=C(NCC1CCN(c2ccc(OC(F)(F)F)cc2)CC1)c1ccc2[nH]c(=O)oc2c1 [Compound I-122]	0.024 µM		
O=C(NCC1CCN(c2ccc(Cl)c(Cl)c2)CC1)c1ccc2[nH]c(=O)oc2c1 [Compound I-138]	0.044 µM		
O=C(NCC1CCN(c2ccc(Cl)c(F)c2)CC1)c1ccc2[nH]c(=O)oc2c1 [Compound I-140]	0.044 µM		
O=C(Nc1cnc2[nH]c(=O)oc2c1)C(=O)N1CCCN(c2ccc(Cl)c(F)c2)CC1 [Compound I-155]	0.053 µM		
C[C@H]1CN(C(=O)C(=O)Nc2ccc3[nH]c(=O)oc3c2)CCN1c1ccc(Cl)cc1 [Compound I-176]			IC50 [1, 6]: ≤ 0.1 µM
O=C(C=C1CCN(c2ccc(Cl)c(F)c2)CC1)Nc1ccc2[nH]c(=O)oc2c1 [Compound I-188]		0.021 µM	
O=C(C=C1CCN(c2ccc(F)c(F)c2)CC1)Nc1ccc2[nH]c(=O)oc2c1 [Compound I-192]		0.052 µM	
O=C(CC1(O)CCN(c2ccc(Cl)c(Cl)c2)CC1)Nc1cnc2[nH]c(=O)oc2c1 [Compound I-197]	0.059 µM		
O=C(Nc1ccc2[nH]c(=O)oc2c1)C(=O)N1CCN(c2ccc(C(F)(F)F)nc2)CC1 [Compound I-198]		0.073 µM	
O=C1Cc2cc(NC(=O)C(=O)N3CCN(c4ccc(Cl)c(F)c4)CC3)ccc2N1 [Compound I-200]		0.081 µM	
O=C1Cc2cc(NC(=O)C(=O)N3CCN(c4ccc(C(F)(F)F)c(F)c4)CC3)ccc2N1 [Compound I-201]		0.074 µM	
C[C@@H]1CN(C(=O)C(=O)Nc2ccc3[nH]c(=O)oc3c2)CCN1c1ccc(OC(F)(F)F)cc1 [Compound I-212]			IC50 [1, 6]: ≤ 0.1 µM
O=C(CC1CCN(c2ccc(OC(F)(F)F)cc2)CC1)Nc1ccc2[nH]c(=O)oc2c1 [Compound I-226]			IC50 [2, 5]: ≤ 0.1 µM
COc1ccc(N2CCN(C(=O)C(=O)Nc3ccc4[nH]c(=O)oc4c3)CC2)cc1F [Compound I-232]			IC50 [2, 5]: ≤ 0.1 µM
O=C(CN1CCN(c2ccc(C(F)(F)F)cc2)CC1)Nc1ccc2[nH]c(=O)oc2c1 [Compound I-235]			IC50 [2, 5]: ≤ 0.1 µM
O=C(CC1CCN(c2ccc(OC(F)F)cc2)CC1)Nc1ccc2[nH]c(=O)oc2c1 [Compound I-239]			IC50 [2, 5]: ≤ 0.1 µM
C[C@@H]1CN(c2ccc(Cl)cn2)CCN1C(=O)C(=O)Nc1ccc2[nH]c(=O)oc2c1 [Compound I-241]			IC50 [2, 5]: ≤ 0.1 µM
